The values below come from patent US20220298196A1, “NOVEL COMPOUND DERIVED FROM WATERMELON, AND COMPOSITION USING SAME” (HAGIHARA FARM PRODUCTION INSTITUTE CO., LTD., priority 2019, published 2022).

For one test, the system named is NHDF cells. Nature of the test: Amount of intracellular reactive oxygen species (ROS), CM-H2DCFDA. Type of test: cell-based, human. Conditions: 50 μM, precultured 24 hours, UV-B 25 mJ/cm2, 1 hour, control 1%, UV-B alone about 1.7%. The text has this: In the studies of “Antioxidative effect”, it was confirmed that 4G3HBE and 4GBE had approximately half of the antioxidation activity of vitamin C. On the other hand, according to “Inhibition of MMP-1 expression” and “Activation of signaling molecules”, it was thought that attenuation of the oxidative stress signal was induced by removal of ROS, generated by UV-B irradiation, by the antioxidation ability of 4G3HBE and 4GBE. Thus, the amount of the intracellular reactive oxygen species (ROS) was measured using CM-H2DCFDA, an indicator of ROS.
The NHDF cells (1.0×10^5 cells/mL) were cultured to a confluent state. Subsequently, 4G3HBE and 4GBE were each added to the cells at a final concentration of 50 μM, followed by preculturing for 24 hours. CM-H2DCFDA serving as a cell-permeable indicator of reactive oxygen was added to the cells at a final concentration of 10 μM one hour before ultraviolet ray irradiation. Subsequently, the cells were irradiated with UV-B with a light intensity of 25 mJ/cm^2 and further cultured for 1 hour in an incubator. Then, fluorescence was measured with an excitation wavelength of 495 nm and a fluorescent wavelength of 530 nm using a multimode microplate reader, Varioscan LUX. […]

A further test relates to NF-κB. In words: Activation (phosphorylation) of signaling molecule after UV-B irradiation, western blotting. Format: cell-based, human. Conditions: NHDF cells, precultured 24 hours, UV-B 25 mJ/cm2. How it is done: (§1) Since activation of p38MAP kinase, SAPK/JNK, and NF-κB involving in an inflammatory response is deeply involved in the induction and production of MMPs after UV-B irradiation, activation (via phosphorylation) of these signaling molecules was studied by the western blotting method.
(§2) More specifically, the NHDF cells were precultured for 24 hours in the same manner as described above, rinsed with PBS twice, irradiated with UV-B with a light intensity of 25 mJ/cm^2, and subjected to western blotting to examine phosphorylation of p38MAP, SAPK/JNK, and NF-κB.
(§3) The data were shown by average±standard error (n=3). The comparison between multiple groups was performed by using the Tukey-Kramer test method (p<0.05).
(§4) Referring to FIG. 4(b), the horizontal axis of the graph indicates conditions of the samples, that is, the presence/absence of UV-B irradiation (“+”: irradiated with UV, “−”: not irradiated), the presence/absence of 4G3HBE (“+”: presence, “−”: absence), and the presence/absence of 4GBE (“+”: presence, “−”: absence). Further, the vertical axis indicates changes in phosphorylation, that is, a relative ratio of phosphorylation activity. Referring to FIG. 4(b), p38MAP, SAPK/JNK, and phosphorylated NF-κB increased by UV-B irradiation. However, the expression of the signaling molecules was suppressed by the presence of 4G3HBE or 4GBE.

A further test has as its system p38MAP kinase. The description is as above. Type of test: cell-based, human. As to conditions: NHDF cells, precultured 24 hours, UV-B 25 mJ/cm2. How it is done: as §1, §2, §3, §4
A further test relates to SAPK/JNK. Described as above. As to conditions: NHDF cells, precultured 24 hours, UV-B 25 mJ/cm2. Format: cell-based, human. The method, then:
as §1, §2, §3, §4

In the next test the test system is MMP-1. In words: Inhibition of MMP-1 protein expression after UV-B irradiation, western blotting. Conditions: NHDF cells, 50 or 100 μM, precultured 24 hours, UV-B 25 mJ/cm2, 24 hours after irradiation. Format: cell-based, human. The method, then: Normal human dermal fibroblasts-Neo (NHDF, hereinafter, simply referred to as “NHDF cells”) were adjusted at 1×10^5 cells/mL and inoculated in a 12-well multi-well plate in a volume of 1 mL each and cultured to a confluent state. Subsequently, test samples (a final concentration of 50 or 100 μM (of each solvent-fractionated matter) (of each isolated substance)) were added to the cells and the cells were precultured for 24 hours. Subsequently, after rinsing with PBS twice, the cells were irradiated with UV-B with a light intensity of 25 mJ/cm^2.
The cells irradiated with ultraviolet rays were subjected to SDS-PAGE after 24 hours, and then western blotting was performed by transferring to PVDF (polyvinylidene difluoride), thereby detecting protein expression of MMP-1.
Referring to FIG. 3(a), in two columns in an upper part of the photograph, an upper column indicates the presence/absence of UV irradiation (“+”: irradiated with UV, “−”: not irradiated) and a lower column indicates samples (no sample indicated by “−”, 4G3HBE, and 4GBE). Further, a left part of the photograph indicates detection targets (MMP-1 and β-Actin) along a vertical direction. β-Actin is measured as a control.

Test [1] in a line: DPPH radical scavenging rate (antioxidative effect). Format: biochemical. Conditions: 200 μM DPPH, 30 minutes, absorbance at 520 nm; compared with L-ascorbic acid. How it is done: In order to evaluate the antioxidation ability of the two novel compounds thus isolated, 200 μM DPPH (1,1-diphenyl-2-picrylhydrazyl) dissolved in 50% ethanol was prepared as a reagent. In the preparation procedure of the reagent, DPPH was first dissolved in ethanol, and an equal amount of Milli-Q water was then added to the mixture. Then, the resulting mixture was filtered with a 0.45 μm syringe filter to remove undissolved matters.
A sample solution in a volume of 150 μL and the 200 μM DPPH ethanol solution in a volume of 150 μL were mixed well in a 96-well plate. After the plate was left standing still for 30 minutes, the absorbance at 520 nm was measured using a microplate reader (Thermo Fisher Scientific, Multiscan-LUX). The radical scavenging rate was obtained using the formula (F1).
Note that in the formula, RD (%) represents the radical scavenging rate (%). ODblank520nm represents the absorbance at 520 nm of the reagent (DPPH) to which each of the sample solutions is not added, while ODsample520nm represents the absorbance at 520 nm of the reagent (DPPH) to which each of the sample solutions is added and mixed, followed by being left standing still for 30 minutes.
FIG. 2 is a graph of the result with a photograph of a state of the microplate. […]

As to `CC(C)(O)C(OC(=O)/C=C/c1ccc(O)c(O)c1)C(=O)OCc1ccc(O[C@@H]2O[C@H](CO)[C@@H](O)[C@H](O)[C@H]2O)c(O)c1` (stereo partly drawn) [4G3HBE, 2-caffeoyl-3-hydroxy-3-methylbutyric 4′-β-D-glucopyranosyloxy-3′-hydroxybenzyl ester], the “intracellular ROS level” value with NHDF cells was “about 1.4%”. In the test with NF-κB, the “activation of NF-κB (phosphorylation)” value is on record as “significantly down-regulated”. Besides, the “activation of p38MAP kinase (phosphorylation)” value with p38MAP kinase was “significantly down-regulated”. Also, the “activation of SAPK/JNK (phosphorylation)” value in the test with SAPK/JNK is on record as “significantly down-regulated”. In the test on MMP-1, the “expression of MMP-1 (protein, detection intensity)” value is listed as “clearly suppressed the expression of MMP-1”. Besides, the “antioxidative activity (radical scavenging rate) relative to vitamin C” value in test [1] was “approximately half that of vitamin C”.
As to `CC(C)(O)C(OC(=O)/C=C/c1ccc(O)c(O)c1)C(=O)OCc1ccc(O[C@@H]2O[C@H](CO)[C@@H](O)[C@H](O)[C@H]2O)cc1` (stereo partly drawn) [4GBE, 2-caffeoyl-3-hydroxy-3-methylbutyric 4′-β-D-glucopyranosyloxybenzyl ester], the “intracellular ROS level” value in the test with NHDF cells is recorded as “about 1.4%”. Besides, the “activation of NF-κB (phosphorylation)” value with NF-κB is reported as “significantly down-regulated”. For the same molecule, the “activation of p38MAP kinase (phosphorylation)” value in the test with p38MAP kinase is recorded as “significantly down-regulated”. For the same molecule, in the test with SAPK/JNK, the “activation of SAPK/JNK (phosphorylation)” value is recorded as “significantly down-regulated”. For the same molecule, the “expression of MMP-1 (protein, detection intensity)” value with MMP-1 is on record as “clearly suppressed the expression of MMP-1”. In addition, in test [1], the “antioxidative activity (radical scavenging rate) relative to vitamin C” value is reported as “approximately half that of vitamin C”.
